Data published in article PMC6022228, “Introducing novel potent anticancer agents of 1H-benzo[f]chromene scaffolds, targeting c-Src kinase enzyme with MDA-MB-231 cell line anti-invasion effect” (Journal of Enzyme Inhibition and Medicinal Chemistry, 2018).
Converted amounts (≈) assume the structure as drawn.

Experiments:
[1] = system: caspases 3/7 in MDA-MB-231 cells; assay: Caspase-Glo 3/7 activity assay; format: cell-based; settings: Homo sapiens, 24 h treatment, 10 concentrations, read-out: Caspase-Glo 3/7 activity assay, MDA-MB-231 cell line, IC50
Experimental: The Caspase-Glo 3/7 activity assay was performed by Reaction Biology Corporation, One Great Valley Parkway, PA. Examined compounds 4c, 4e, 4h, 6d, and 6e were dissolved in DMSO as 20 mM stock and tested for their ability to Caspase-Glo 3/7 activity assay. […] Caspase-Glo 3/7 activity assay reagent was purchased from Promega (Madison, WI). MDA-MB-231 cell line was provided by ATCC. MDA-MB-231 cell line culture conditions: DMEM with 10% FBS. 100 µg/mL penicillin and 100 µg/mL streptomycin were added to the culture media. Cultures were maintained at 37 °C in a humidified atmosphere of 5% CO2 and 95% air.
Caspases are […] that promote apoptosis. Caspases are vital biochemical features of apoptotic signalling. […] To determine whether the cell growth inhibition in response to the benzochromene derivatives was mediated by apoptosis and was caspase dependent, MDA-MB-231 cells were treated with 10 different concentrations of the target compounds for 24 h.

HCT-116 = assay: MTT viability assay, HCT-116 (human colon cancer); format: cell-based; settings: 24 h incubation, mean ± standard error
Experimental: (§1) Compounds 4a–h and 6a–h were initially evaluated for in vitro antitumour activity against three different human cell lines: MCF-7, HCT-116, and HepG-2, and only the representative active cytotoxic compounds were further evaluated against the normal HFL-1 cell line. The in vitro cytotoxicity evaluation was performed at the Regional Center for Mycology & Biotechnology (RCMP), Al-Azhar University under different concentrations (50, 25, 12.5, 6.25, 3.125, 1.56, and 0 µg/mL); Vinblastine and Doxorubicin are used as reference cytotoxic compounds. The measurements of cell growth and the in vitro cytotoxicity evaluation were determined using viability assay as described in literature[31–33] and the result was cited in Table 1 and Figure 2.
(§2) The in vitro cytotoxic evaluation of the prepared compounds 4a–h and 6a–h was performed against MCF-7 (breast cancer), HCT-116 (human colon cancer), HepG-2 (liver cancer), and HFL-1(normal fibroblast lung) using the 3-(4,5-dimethylthiazol-2-yl)-2,5-diphenyl tetrazolium bromide (MTT) colorimetric assay as described in literature. […] The results were expressed as growth inhibitory concentration (IC50) values, which represent the compounds’ concentrations required to produce a 50% inhibition of the cell growth after 24 h of incubation, compared to the untreated controls as shown in Table 1 and Figure 2.

c-Src kinase = target: T1, c-Src kinase (Homo sapiens, UniProt P12931); assay: c-Src kinase assay (HTScan Src Kinase Assay Kit); format: biochemical; settings: GST-Src kinase, triplicate; read-out: Inhibition of c-Src kinase activity, IC50
T1 construct: purchased Cell Signaling Technology (Danvers, MA) 7776
T1 sequence (P12931 whole entry): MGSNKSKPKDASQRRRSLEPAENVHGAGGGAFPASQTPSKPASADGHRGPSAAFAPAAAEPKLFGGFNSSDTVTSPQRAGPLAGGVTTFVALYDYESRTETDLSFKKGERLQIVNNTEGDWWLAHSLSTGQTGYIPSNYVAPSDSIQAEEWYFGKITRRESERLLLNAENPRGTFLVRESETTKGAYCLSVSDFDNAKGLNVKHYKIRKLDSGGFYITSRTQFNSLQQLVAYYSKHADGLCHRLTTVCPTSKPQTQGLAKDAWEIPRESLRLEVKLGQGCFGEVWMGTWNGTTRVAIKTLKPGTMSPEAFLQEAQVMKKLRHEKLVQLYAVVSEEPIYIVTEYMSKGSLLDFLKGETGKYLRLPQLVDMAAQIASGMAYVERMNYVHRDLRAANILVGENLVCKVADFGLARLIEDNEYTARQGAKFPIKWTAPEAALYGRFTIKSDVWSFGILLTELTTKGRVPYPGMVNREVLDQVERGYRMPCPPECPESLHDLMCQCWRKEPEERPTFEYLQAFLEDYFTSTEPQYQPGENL
Experimental: Streptavidin-coated plates were purchased from Pierce (Rockford, IL). […] The reaction mixture was incubated for 30 min at room temperature. The kinase reaction was stopped with the addition of 50 µL of 50 mM EDTA (pH 8.0). […] At the end of the incubation, the wells were washed three times with 200 µL of 0.05% Tween-20 in PBS buffer (PBS/T). After that to each well was added 100 µL of phosphotyrosine antibody (P-Tyr-100) (1:1000 dilution in PBS/T with 1% BSA) and the wells were incubated for another 60 min. After washing three times with 0.05% Tween-20 in PBS/T, the wells were incubated with 100 µL secondary anti-mouse IgG antibody, which was HRP-conjugated (1:500 dilution in PBS/T with 1% BSA) for next 30 min at room temperature. The wells were washed five times with 0.05% Tween-20 in PBS and then were incubated with 100 µL of 3,3′,5,5′-tetramethylbenzidine dihydrochloride substrate for 5 min. […] IC50 values of the compounds were calculated using ORIGIN 6.0 (Origin Lab Corporation, Northampton, MA) software. […] All the experiments were carried out in triplicate.

MDA-MB-231 cell line = assay: Cell invasion assay; format: cell-based; settings: Homo sapiens, Table 2, read-out: IC50 anti-invasion, MDA-MB-231 breast cancer cells
Experimental: The cell invasion assay was performed by Reaction Biology Corporation, One Great Valley Parkway, PA. All compounds were dissolved in DMSO and tested for their ability to cell invasion assay. Compounds 4c, 6e, and reference compound bosutinib were purchased from Sellechem (Houston, TX). Corning Bio Coat Fluoro Blok Insert System-96-well plates were purchased from Corning (Corning Incorporated, Tewksbury, MA). Calcein AM labelling reagent was purchased from Molecular Probes (Eugene, Oregon). MDA-MB-231 cell line was purchased from American Type Culture Collection (Manassas, VA). MDA-MB-231 cells were grown in DMEM medium supplemented with 10% foetal bovine serum (FBS), 100 µg/mL of penicillin, and 100 µg/mL of streptomycin. Cultures were maintained at 37 °C in a humidified atmosphere of 5% CO2 and 95% air-following incubation; medium was carefully removed from the apical chambers. The insert system was transferred into a second 96-square well plate containing 200 µl/well of 4 µg/mL Calcein AM in HBSS. The plates were incubated for 1 h at 37 °C, 5% CO2. Fluorescence of invaded cells was read at wavelengths of 492/535 nm (Ex/Em) from bottom reading using Envision 2104 Multilabel Reader (PerkinElmer, Santa Clara, CA). The IC50 curves were plotted and IC50 values were calculated using the Graph Pad Prism 4 program for windows (Graph Pad software, San Diego California. www.graphpad.com) based on a sigmoidal dose-response equation.
Tumour invasion is a common feature of triple-negative breast cancers. […] The invasion process has become an important prerequisite for cancer progression and metastasis. […] A bosutinib drug was used as a control ant-invasive agent. […] The obtained data might confirm that the cytotoxicity of novel molecules led to the death of the cancer cells and stopped the metastatic processes.

HFL-1 = assay: MTT viability assay, HFL-1 (normal fibroblast lung); format: cell-based; settings: Homo sapiens, HFL1, 24 h incubation, normal cell line, mean ± standard error
Experimental: as §1, §2

HepG-2 = assay: MTT viability assay, HepG-2 (liver cancer); format: cell-based; settings: Homo sapiens, HepG2, 24 h incubation, mean ± standard error
Experimental: as §1, §2

MCF-7 = assay: MTT viability assay, MCF-7 (breast cancer); format: cell-based; settings: Homo sapiens, MCF7, 24 h incubation, mean ± standard error
Experimental: as §1, §2

Question: What does the source list for `COc1ccc2c3c(ccc2c1)OC(N)=C(C#N)C3c1ccc(C)cc1` (centres unmarked) [Compound 6e, 3-Amino-8-methoxy-1-(4-methylphenyl)-1H-benzo[f]chromene-2-carbonitrile]?
Answer: IC50 [1]: 38.9 µM; IC50 (HCT-116): 0.8 ± 0.06 µg/mL (≈ 2.34 µM); IC50 (c-Src kinase): 0.009 µM; IC50 (MDA-MB-231 cell line): 16.5 µM; melting point: 232 to 233 °C; IC50 (HFL-1): 29.7 ± 0.17 µg/mL (≈ 86.7 µM); IC50 (HepG-2): 0.6 ± 0.21 µg/mL (≈ 1.75 µM); IC50 (MCF-7): 0.3 ± 0.05 µg/mL (≈ 0.876 µM)
